From publication PMC7023430, “4-Aminobenzoic Acid Derivatives: Converting Folate Precursor to Antimicrobial and Cytotoxic Agents” (Biomolecules, 2019)
Converted amounts (≈) assume the structure as drawn. Where two headings read alike, the source gives them in different places.

Assays:
[1] = tested on: Mycobacterium kansasii 235/80; test: Antimycobacterial micromethod in Šula's medium, M. kansasii 235/80; assay type: cell-based
[2] = tested on: Candida tropicalis 156; test: Antifungal microdilution broth method, C. tropicalis; assay type: cell-based
Summary of the method: (§1)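 Duplicate microdilution tests in RPMI-1640 (2% glucose, L-glutamine, MOPS, pH 7.0) with twofold compound dilutions from DMSO gave visually determined MICs. Results counted only when duplicates agreed to within one step; protocol adapted from EUCAST.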

[3] = tested on: Candida krusei E28; test: Antifungal microdilution broth method, C. krusei; assay type: cell-based; settings: Pichia kudriavzevii
Summary of the method: as §1

[4] = tested on: Lichtheimia corymbifera 272; test: Antifungal microdilution broth method, L. corymbifera; assay type: cell-based
Summary of the method: as §1

[5] = tested on: Escherichia coli ATCC 25922, CCM 3954; test: Antibacterial microdilution broth method, E. coli; assay type: cell-based; settings: Escherichia coli
[6] = tested on: Mycobacterium avium 330/88; test: Antimycobacterial micromethod in Šula's medium, M. avium; assay type: cell-based
[7] = tested on: Candida glabrata 20/I; test: Antifungal microdilution broth method, C. glabrata; assay type: cell-based; settings: Nakaseomyces glabratus
Summary of the method: as §1

[8] = tested on: Staphylococcus epidermidis H 6966/08; test: Antibacterial microdilution broth method, S. epidermidis; assay type: cell-based; settings: Staphylococcus epidermidis, H6966/08, S. epidermidis
[9] = tested on: Pseudomonas aeruginosa ATCC 27853, CCM 3955; test: Antibacterial microdilution broth method, P. aeruginosa; assay type: cell-based; settings: Pseudomonas aeruginosa, P. aeruginosa
[10] = tested on: Trichosporon asahii 1188; test: Antifungal microdilution broth method, T. asahii; assay type: cell-based
Summary of the method: as §1

[11] = tested on: M. kansasii 6509/96 (clinical isolate); test: Antimycobacterial micromethod in Šula's medium, M. kansasii 6509/96; assay type: cell-based; settings: Mycobacterium kansasii
[12] = tested on: Enterococcus faecalis ATCC 29212, CCM 4224; test: Antibacterial microdilution broth method, E. faecalis; assay type: cell-based; settings: Enterococcus faecalis
[13] = tested on: Klebsiella pneumoniae D 11750/08; test: Antibacterial microdilution broth method, K. pneumoniae; settings: K. pneumoniae D 11750/08; for MIC KP 24 h: 24 h incubation; for MIC KP 48 h: 48 h incubation
[14] = tested on: Trichophyton interdigitale 445; test: Antifungal microdilution broth method, T. interdigitale; assay type: cell-based
Summary of the method: as §1

[15] = tested on: methicillin-resistant Staphylococcus aureus ATCC 43300, CCM 4750 (MRSA); test: Antibacterial microdilution broth method, MRSA; assay type: cell-based; settings: Staphylococcus aureus
[16] = tested on: ESBL-positive Klebsiella pneumoniae J 14368/08
[17] = 235/80, 168 h, 7 days incubation at 37 °C, read-out: MIC M. kansasii 235/80 7 d
[18] = 235/80, 336 h, 14 days incubation at 37 °C, read-out: MIC M. kansasii 235/80 14 d
[19] = 235/80, 504 h, 21 days incubation at 37 °C, read-out: MIC M. kansasii 235/80 21 d
[20] = 24 h incubation, read-out: MIC EC 24 h
[21] = 48 h incubation, read-out: MIC EC 48 h
[22] = 330/88, 336 h, 14 days incubation at 37 °C, read-out: MIC M. avium 330/88 14 d
[23] = 330/88, 504 h, 21 days incubation at 37 °C, read-out: MIC M. avium 330/88 21 d
[24] = 24 h incubation, read-out: MIC SE 24 h
[25] = 48 h incubation, read-out: MIC SE 48 h
[26] = 24 h incubation, read-out: MIC PA 24 h
[27] = 48 h incubation, read-out: MIC PA 48 h
[28] = 168 h, 7 days incubation at 37 °C, read-out: MIC M. kansasii 6509/96 7 d
[29] = 336 h, 14 days incubation at 37 °C, read-out: MIC M. kansasii 6509/96 14 d
[30] = 504 h, 21 days incubation at 37 °C, read-out: MIC M. kansasii 6509/96 21 d
[31] = 24 h incubation, read-out: MIC EF 24 h
[32] = 48 h incubation, read-out: MIC EF 48 h
[33] = 24 h incubation, read-out: MIC MRSA 24 h
[34] = 48 h incubation, read-out: MIC MRSA 48 h

O=C(O)c1ccc(N=Cc2cc(Br)ccc2O)cc1 [1d, 4-[(5-Bromo-2-hydroxybenzylidene)amino]benzoic acid]
MIC [1, 17]: 250 µM (≈ 80 µg/mL) | MIC [1, 18]: 250 µM (≈ 80 µg/mL) | MIC [1, 19]: 500 µM (≈ 160 µg/mL) | MIC ([2]; 24 h, read-out: MIC CT 24 h): 125 µM (≈ 40 µg/mL) | MIC ([2]; 48 h, read-out: MIC CT 48 h): 125 µM (≈ 40 µg/mL) | MIC ([3]; 24 h, read-out: MIC CK 24 h): 125 µM (≈ 40 µg/mL) | MIC ([3]; 48 h, read-out: MIC CK 48 h): 125 µM (≈ 40 µg/mL) | MIC ([4]; 24 h, read-out: MIC LC 24 h): > 250 µM | MIC ([4]; 48 h, read-out: MIC LC 48 h): > 250 µM | MIC [5, 20]: > 250 µM | MIC [5, 21]: > 250 µM | MIC [6, 22]: 500 µM (≈ 160 µg/mL) | MIC [6, 23]: 500 µM (≈ 160 µg/mL) | MIC ([7]; 24 h, read-out: MIC CG 24 h): 62.5 µM (≈ 20 µg/mL) | MIC ([7]; 48 h, read-out: MIC CG 48 h): 62.5 µM (≈ 20 µg/mL) | MIC [8, 24]: 62.5 µM (≈ 20 µg/mL) | MIC [8, 25]: 62.5 µM (≈ 20 µg/mL) | MIC [9, 26]: > 250 µM | MIC [9, 27]: > 250 µM | MIC ([10]; 24 h, read-out: MIC TA 24 h): 125 µM (≈ 40 µg/mL) | MIC ([10]; 48 h, read-out: MIC TA 48 h): 125 µM (≈ 40 µg/mL) | MIC [11, 28]: 500 µM (≈ 160 µg/mL) | MIC [11, 29]: 500 µM (≈ 160 µg/mL) | MIC [11, 30]: 500 µM (≈ 160 µg/mL) | MIC [12, 31]: > 250 µM | MIC [12, 32]: > 250 µM | MIC KP 24 h [13]: >250 µM | MIC KP 48 h [13]: >250 µM | MIC ([14]; 72 h, read-out: MIC TI 72 h): 62.5 µM (≈ 20 µg/mL) | MIC ([14]; 120 h, read-out: MIC TI 120 h): 62.5 µM (≈ 20 µg/mL) | MIC [15, 33]: > 250 µM | MIC [15, 34]: > 250 µM | MIC KP-E 24 h [16]: >250 µM | MIC KP-E 48 h [16]: >250 µM

CC(C)(C)c1ccc(O)c(C=Nc2ccc(C(=O)O)cc2)c1 [1j, 4-{[5-(Tert-butyl)-2-hydroxybenzylidene]amino}benzoic acid]
MIC [1, 17]: 125 µM (≈ 37.2 µg/mL) | MIC [1, 18]: 125 µM (≈ 37.2 µg/mL) | MIC [1, 19]: 250 µM (≈ 74.3 µg/mL) | MIC ([2]; 24 h, read-out: MIC CT 24 h): > 500 µM | MIC ([2]; 48 h, read-out: MIC CT 48 h): > 500 µM | MIC ([3]; 24 h, read-out: MIC CK 24 h): > 500 µM | MIC ([3]; 48 h, read-out: MIC CK 48 h): > 500 µM | MIC ([4]; 24 h, read-out: MIC LC 24 h): > 500 µM | MIC ([4]; 48 h, read-out: MIC LC 48 h): > 500 µM | MIC [5, 20]: > 500 µM | MIC [5, 21]: > 500 µM | MIC [6, 22]: 1000 µM (≈ 297 µg/mL) | MIC [6, 23]: > 1000 µM | MIC ([7]; 24 h, read-out: MIC CG 24 h): > 500 µM | MIC ([7]; 48 h, read-out: MIC CG 48 h): > 500 µM | MIC [8, 24]: > 500 µM | MIC [8, 25]: > 500 µM | MIC [9, 26]: > 500 µM | MIC [9, 27]: > 500 µM | MIC ([10]; 24 h, read-out: MIC TA 24 h): > 500 µM | MIC ([10]; 48 h, read-out: MIC TA 48 h): > 500 µM | MIC [11, 28]: 250 µM (≈ 74.3 µg/mL) | MIC [11, 29]: 250 µM (≈ 74.3 µg/mL) | MIC [11, 30]: 500 µM (≈ 149 µg/mL) | MIC [12, 31]: > 500 µM | MIC [12, 32]: > 500 µM | MIC KP 24 h [13]: >500 µM | MIC KP 48 h [13]: >500 µM | MIC ([14]; 72 h, read-out: MIC TI 72 h): > 500 µM | MIC ([14]; 120 h, read-out: MIC TI 120 h): > 500 µM | MIC [15, 33]: > 500 µM | MIC [15, 34]: > 500 µM | MIC KP-E 24 h [16]: >500 µM | MIC KP-E 48 h [16]: >500 µM
